Patent publication US11344709B2, “Fluid delivery apparatus having a controller assembly and method of use” (SORRENTO THERAPEUTICS, INC., priority 2016, dated 2022)
Where two headings read alike, the source gives them in different places.

Legend:
[1] = FIG. 49, cited from earlier work
[2] = Porcine Pharmacokinetic Study (FIG. 50): sumatriptan in blood serum after delivery from the fluid delivery apparatus; assay type: in vivo, Yorkshire pigs; conditions: 20 mg dose from the fluid delivery apparatus (microneedles), pig; actual profile FIG. 50 compared with nasal, oral and Zecuity (FIG. 49)
Procedure: In reference to FIG. 50, shown is the time versus concentration profile of sumatriptan as administered according to the methods and devices disclosed herein. An ideal profile (identified as “Target PK Profile”) is calculated based on the therapeutic efficiency of the medicament.
Thirty five 80 kg castrated or female Yorkshire pigs were placed under anesthesia and a catheter was inserted into the right or left jugular vein. After the catheter was placed, the pigs were kept under anesthesia and placed on their backs. The ventral region was shaved and covered with a depilatory cream (Nair Sensitive®) for 8 minutes. The cream was removed and the area washed with alcohol. The fluid delivery apparatus was placed against the skin with an adhesive and the microneedles (100 total) were inserted at a post traveling velocity of 6 m/s. A 20 mg dose of sumatriptan from the fluid deliver apparatus was delivered while the pig was under anesthesia. 3 mL blood samples were withdrawn at each time point and spun down to recover the blood serum.

[3] = nasal administration, compared with actual profile of the fluid delivery apparatus (FIG. 50)
[4] = subcutaneous administration, compared with the other routes of administration

## CNS(=O)(=O)Cc1ccc2[nH]cc(CCN(C)C)c2c1.O=C(O)CCC(=O)O [sumatriptan, 1-[3-[2-(dimethylamino)ethyl]-1H-indol-5-yl]-N-methylmethanesulfonamide butanedioic acid]
[1]; [3]
  AUC: significantly lower
  Css: significantly lower
[1]; oral administration, compared with actual profile of the fluid delivery apparatus (FIG. 50)
  Tmax: much slower
[1]; subcutaneous administration
  Css: significantly lower as time progresses
[1]; [4]
  Cmax: higher
  Tmax: much faster
[2]
  AUC: significantly improved
  Css: significantly improved
  Tmax: significantly improved
